Reference: ChEMBL document CHEMBL1811901, “Bioactive sulfoximines: syntheses and properties of Vioxx analogs” (Bioorg Med Chem Lett, 2011)

Assays:
[1] = molecular target: T1, Prostaglandin G/H synthase 1 (Homo sapiens, UniProt P23219); experiment: Inhibition of human platelets COX1 assessed as PGE2 production using arachidonic acid as substrate preincubated for 15 mins measured after 15 mins by EIA
[2] = molecular target: T1, Prostaglandin G/H synthase 1; experiment: Inhibition of human platelets COX1 assessed as PGE2 production using arachidonic acid as substrate at 10 uM preincubated for 15 mins measured after 15 mins by EIA
[3] = molecular target: T2, Prostaglandin G/H synthase 2 (Homo sapiens, UniProt P35354); experiment: Inhibition of human recombinant COX2 expressed in Sf21 cells assessed as PGE2 production using arachidonic acid as substrate preincubated for 15 mins measured after 5 mins by EIA
T2 sequence (P35354 whole entry): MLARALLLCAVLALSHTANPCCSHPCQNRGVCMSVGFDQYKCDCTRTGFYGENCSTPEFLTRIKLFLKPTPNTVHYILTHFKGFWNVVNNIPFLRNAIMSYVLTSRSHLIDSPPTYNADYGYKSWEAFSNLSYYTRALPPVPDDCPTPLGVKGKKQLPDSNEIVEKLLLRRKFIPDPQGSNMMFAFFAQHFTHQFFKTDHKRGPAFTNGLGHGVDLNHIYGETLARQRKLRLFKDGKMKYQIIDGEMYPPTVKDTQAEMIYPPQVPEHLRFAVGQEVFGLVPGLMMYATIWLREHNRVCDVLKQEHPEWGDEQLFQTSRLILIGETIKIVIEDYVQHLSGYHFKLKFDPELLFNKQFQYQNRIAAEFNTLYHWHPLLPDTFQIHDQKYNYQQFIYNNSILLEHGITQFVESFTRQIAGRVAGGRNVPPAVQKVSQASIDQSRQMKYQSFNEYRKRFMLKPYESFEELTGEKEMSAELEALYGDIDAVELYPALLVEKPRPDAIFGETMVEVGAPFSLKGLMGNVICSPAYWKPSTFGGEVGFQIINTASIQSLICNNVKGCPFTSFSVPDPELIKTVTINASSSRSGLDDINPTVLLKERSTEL

hERG (KCNH2) [4] = molecular target: T3, hERG (KCNH2) (Homo sapiens, UniProt Q12809); experiment: Inhibition of human ERG expressed in HEK293 cells assessed as inhibition of tail current at holding potential of -70 mV at 1 uM after 10 mins by whole-cell patch clamp method; format: cell-based; conditions: HEK293 cells that express hERG
hERG (KCNH2) [5] = molecular target: T3, hERG (KCNH2); experiment: Inhibition of human ERG expressed in HEK293 cells assessed as inhibition of tail current at holding potential of -70 mV at 3.16 uM after 10 mins by whole-cell patch clamp method; format: cell-based; conditions: HEK293 cells that express hERG
hERG (KCNH2) [6] = molecular target: T3, hERG (KCNH2); experiment: Inhibition of human ERG expressed in HEK293 cells assessed as inhibition of tail current at holding potential of -70 mV at 10 uM after 10 mins by whole-cell patch clamp method; format: cell-based; conditions: HEK293 cells that express hERG
hERG (KCNH2) [7] = molecular target: T3, hERG (KCNH2); experiment: Inhibition of human ERG expressed in HEK293 cells assessed as inhibition of tail current at holding potential of -70 mV at 31.6 uM after 10 mins by whole-cell patch clamp method; format: cell-based; conditions: HEK293 cells that express hERG
hERG (KCNH2) [8] = molecular target: T3, hERG (KCNH2); experiment: Inhibition of human ERG expressed in HEK293 cells assessed as inhibition of tail current at holding potential of -70 mV at 3.16 uM after 10 mins by whole-cell patch clamp method relative to control; format: cell-based; conditions: HEK293 cells that express hERG
hERG (KCNH2) [9] = molecular target: T3, hERG (KCNH2); experiment: Inhibition of human ERG expressed in HEK293 cells assessed as inhibition of tail current at holding potential of -70 mV at 100 uM after 10 mins by whole-cell patch clamp method; format: cell-based; conditions: HEK293 cells that express hERG
hERG (KCNH2) [10] = molecular target: T3, hERG (KCNH2); experiment: Inhibition of human ERG expressed in HEK293 cells assessed as inhibition of tail current at holding potential of -70 mV at 1 uM after 10 mins by whole-cell patch clamp method relative to control; format: cell-based; conditions: HEK293 cells that express hERG

T3 sequence (Q12809 whole entry): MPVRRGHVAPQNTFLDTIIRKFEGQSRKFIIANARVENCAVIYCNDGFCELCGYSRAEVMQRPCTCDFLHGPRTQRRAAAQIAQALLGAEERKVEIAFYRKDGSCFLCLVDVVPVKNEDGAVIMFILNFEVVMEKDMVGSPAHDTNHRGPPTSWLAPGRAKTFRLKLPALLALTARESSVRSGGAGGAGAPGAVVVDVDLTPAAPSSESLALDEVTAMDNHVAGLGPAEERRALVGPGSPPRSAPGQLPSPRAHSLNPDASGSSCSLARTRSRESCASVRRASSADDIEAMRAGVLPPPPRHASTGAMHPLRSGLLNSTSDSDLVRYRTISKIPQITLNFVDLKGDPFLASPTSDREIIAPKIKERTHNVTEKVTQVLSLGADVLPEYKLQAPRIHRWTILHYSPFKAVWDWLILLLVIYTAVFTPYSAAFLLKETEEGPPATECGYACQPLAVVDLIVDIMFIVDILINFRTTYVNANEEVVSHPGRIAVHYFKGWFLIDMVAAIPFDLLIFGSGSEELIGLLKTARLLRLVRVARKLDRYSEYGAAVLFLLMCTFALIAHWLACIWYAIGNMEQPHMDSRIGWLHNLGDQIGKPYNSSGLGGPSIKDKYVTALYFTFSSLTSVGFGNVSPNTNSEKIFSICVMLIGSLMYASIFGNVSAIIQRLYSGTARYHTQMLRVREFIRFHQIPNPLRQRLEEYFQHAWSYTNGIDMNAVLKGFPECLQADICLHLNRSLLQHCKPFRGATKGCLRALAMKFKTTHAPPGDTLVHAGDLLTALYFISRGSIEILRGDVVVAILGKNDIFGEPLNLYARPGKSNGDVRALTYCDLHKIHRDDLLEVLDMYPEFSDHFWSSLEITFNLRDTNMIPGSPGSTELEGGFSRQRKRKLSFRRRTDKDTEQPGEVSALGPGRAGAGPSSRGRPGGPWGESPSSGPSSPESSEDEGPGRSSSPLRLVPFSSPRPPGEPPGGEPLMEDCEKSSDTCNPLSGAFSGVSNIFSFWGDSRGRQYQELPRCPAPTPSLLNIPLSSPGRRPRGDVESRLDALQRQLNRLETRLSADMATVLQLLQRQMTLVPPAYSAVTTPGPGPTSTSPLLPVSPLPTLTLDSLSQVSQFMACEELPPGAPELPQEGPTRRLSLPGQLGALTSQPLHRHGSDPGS
T1 sequence (P23219 whole entry): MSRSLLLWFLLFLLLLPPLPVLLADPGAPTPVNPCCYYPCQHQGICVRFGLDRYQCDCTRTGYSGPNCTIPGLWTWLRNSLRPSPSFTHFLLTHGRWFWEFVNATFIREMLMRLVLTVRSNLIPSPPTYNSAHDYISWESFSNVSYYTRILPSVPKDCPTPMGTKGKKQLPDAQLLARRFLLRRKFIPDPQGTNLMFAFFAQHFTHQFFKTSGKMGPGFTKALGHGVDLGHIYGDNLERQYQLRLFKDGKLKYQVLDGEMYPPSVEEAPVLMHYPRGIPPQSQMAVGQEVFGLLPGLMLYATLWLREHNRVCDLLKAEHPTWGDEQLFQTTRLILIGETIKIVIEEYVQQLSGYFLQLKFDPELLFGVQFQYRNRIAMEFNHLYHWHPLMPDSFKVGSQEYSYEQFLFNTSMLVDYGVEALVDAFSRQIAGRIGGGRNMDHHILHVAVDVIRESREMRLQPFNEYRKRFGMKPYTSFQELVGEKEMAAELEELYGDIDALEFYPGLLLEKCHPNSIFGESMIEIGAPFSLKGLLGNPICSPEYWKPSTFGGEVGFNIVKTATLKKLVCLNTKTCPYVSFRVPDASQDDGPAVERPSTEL

CN=[S+](C)([O-])c1ccc(C2=C(c3ccccc3)C(=O)OC2)cc1 (stereo unspecified) showed an IC50 [1] of 42.4 nM, an inhibition [2] of 10% and an IC50 [3] of 156 nM.

CS(=O)(=O)c1ccc(C2=C(c3ccccc3)C(=O)OC2)cc1 [ROFECOXIB] showed an inhibition at 10 min, 1 µM (hERG (KCNH2) [4]) of 6.8%, an inhibition at 10 min, 3.16 µM (hERG (KCNH2) [5]) of 8.3% and an inhibition at 10 min, 10 µM (hERG (KCNH2) [6]) of 10.4%. It also gave an inhibition at 10 min, 31.6 µM (hERG (KCNH2) [7]) of 19.1%, an inhibition at 10 min, 3.16 µM (hERG (KCNH2) [8]) of -10.2% and an inhibition at 10 min, 100 µM (hERG (KCNH2) [9]) of 27.6%.

C[S+](=N)([O-])c1ccc(C2=C(c3ccccc3)C(=O)OC2)cc1 (stereo unspecified) gave an inhibition at 10 min, 1 µM (hERG (KCNH2) [4]) of 1.7%, an inhibition at 10 min, 3.16 µM (hERG (KCNH2) [5]) of 7% and an inhibition at 10 min, 1 µM (hERG (KCNH2) [10]) of -0.1%. The inhibition at 10 min, 10 µM (hERG (KCNH2) [6]) was 20%, the inhibition at 10 min, 31.6 µM (hERG (KCNH2) [7]) was 27.6% and the inhibition [2] was 26%. The inhibition at 10 min, 100 µM (hERG (KCNH2) [9]) was 29.6%.
